# According to patent US8337447B2, “Device for delivery of antifibrotic agents and method” (priority 2006, dated 2012):
# System: human conjunctival fibroblasts
# Experiment: Polymer cytotoxicity in vitro, toluidine blue staining after 7 days of culture
# Assay type: cell-based
# Conditions: MMC incorporated in salt-free P-HEMA hydrogel (Procedure 2), exponential fit, r2 0.95
# Experimental: Measurement of polymer cytotoxicity in vitro: A single 8 mm disk of sterile polymer was affixed to the center of each 60 mm tissue culture dish with clear RTV silicone cement. The silicone cement was sterile as it came from the tube and care was taken during this procedure to maintain the sterility of both the polymer and the tissue culture dish. The cement was allowed to cure for 1-2 hours in a sterile environment, until no odor of acetic acid could be detected. […] The culture medium was removed and the cell layer was gently washed 3 times with 5 ml of phosphate-buffered saline. […] In some cases, the solutions had to be diluted with 2% aqueous sodium dodecyl sulfate to bring the absorbance within the linear range of the spectrophotometer. […]
# Once these parameters had been determined, the study was repeated with early passage cultures human conjunctival fibroblasts, the cell type against which these slow release polymers will ultimately be targeted. […]
# A single 8 mm disk of polymer was affixed to each culture dish with silicone cement and cells were fixed and stained 7 days after inoculation, as described in Methods. After solubilization of the cell-bound dye, the color (measured as absorbance at 650 nm) was a measure of the number of cells in each dish. […]
smiles,measurement,value
"CO[C@@]12[C@H](COC(N)=O)C3=C(C(=O)C(C)=C(N)C3=O)N1C[C@@H]1N[C@@H]12 [MMC, mitomycin C]",concentration of MMC that inhibited 50% of cell proliferation (IC50),0.15 mg/g dried gel
